Data reported in patent publication US11911396B2, “Use of compound in preparation of drug for treating cerebral small vessel disease” (GUANGZHOU CELLPROTEK PHARMACEUTICAL CO., LTD, priority 2017, dated 2024).

How the values were obtained:
CD11b in microglia BV2 = experiment: Western blot of CD11b in BV2 cells stimulated with hemoglobin and hypoxia, with or without CD163 RNA interference; format: cell-based; conditions: 10 μM Triol, 20 μM hemoglobin and 1% hypoxia for 6 hours
Experimental: FIG. 7. […] According to the manufacturer's instructions, RNAiMAX was used to transfect CD163 No. 01 and scrambled interference fragment NC respectively to BV2 cells, BV2 cell culture medium was then added with or without 10 μM Triol, and BV2 cells were stimulated with 20 μM hemoglobin and 1% hypoxia for 6 hours, after which protein samples were collected, and the expression of microglial activation markers Iba-1 and CD11b was detected by Western blot.
(§1) 1) Preparation of protein samples (see the instructions of M-PER protein lysate): After the cells had been processed for the specified time, the medium was aspirated and then washed with 4° C. pre-chilled PBS (0.01M pH7.2˜7.3) for 3 times. 150-200 ul of M-PER protein lysate mixed with protease inhibitor (PMSF 100×) was added, which was lysed on ice for 10 minutes to fully lyse the cells. […] 2) BCA protein quantification (see the instructions of BCA protein quantification kit): corresponding components were added to a 96-well detection plate by the ratio of quantification reagent A solution:B solution:ddH2O:protein=100:2:7.5:5, and albumin standards diluted in gradient concentration were added to draw a standard curve. […] After the reaction, the absorbance of each well at a wavelength of 562 nm was detected using a microplate reader. […]

TNF-α = experiment: Western blot of TNF-α in prefrontal cortex brain tissue, acute hypobaric hypoxia model; format: in vivo, cynomolgus monkeys; conditions: FIGS. 3A and 3B
Source text: FIG. 3. […] A. Protein expression of inflammatory factors IL-6, IL-1β and TNF-α in the brain tissue of the prefrontal cortex of cynomolgus monkeys; B. Statistics of protein relative gray scan values. NN: Normobaric Normoxia group (N=3); HH: Hypobaric Hypoxia group (N=3); HH+Triol: Hypobaric Hypoxia with Triol administration group (N=3); HH+PROG: Hypobaric Hypoxia with control drug administration group (N=3). The gray value was obtained by scanning with Image Lab software, and the relative value was obtained after normalizing with α-Tubulin. One-way ANOVA analysis and Dunnutt's t test were used to perform statistical tests, and in the latter each group was compared with the HH group, *, p<0.05; **, p<0.01.
as §1, with “times.” for “times. 150-200 ul of M-PER protein lysate mixed with protease inhibitor (PMSF 100×) was added, which was lysed on ice for 10 minutes to fully lyse the cells.”

SMILES: C[C@@]12CCCC1C1C[C@@H](O)[C@@]3(O)C[C@@H](O)CC[C@]3(C)C1CC2 (stereo partly drawn) [Triol, 5α-androst-3β,5,6β-triol]
- effect on the up-regulation of CD11b in hypoxia and hemoglobin-activated microglia cells (CD11b in microglia BV2; without CD163 interference): inhibitory effect
- inhibitory effect on the up-regulation of CD11b after interfering CD163 (CD11b in microglia BV2; CD163 RNA interference, FIG. 7): cancelled
- expression level of TNF-α (TNF-α): significantly reduced
